Source: article PMC8087795 (2021)
Values belong to the compound of their own block, whether it stands above or below them.

Assays:
[1] = system: oligoribonucleotide 3 (biotinylated truncated pre-miR-21) (RNA, miRNA) CCGACUGAUGUUGACUGUUGAAUCUCAUGGCAACACCAGUCGG; test: SPR steady state; conditions: 80 mM NaCl, 100 mM total Na+; 20 mM sodium cacodylate, pH 7.2; equivalent affinity for all sites; per site
[2] = system: oligoribonucleotide 4 (biotinylated FRET-pair truncated pre-miR-21) (RNA, miRNA, tC^O (cytosine analogue, donor) at 15; tCnitro (cytosine analogue, acceptor) at 24) CCGACUGAUGUUGACUGUUGAAUCUCAUGGCAACACCAGUCGG; test: SPR steady state; conditions: 80 mM NaCl, 100 mM total Na+; 20 mM sodium cacodylate, pH 7.2; equivalent affinity for all sites; per site
[3] = system: oligoribonucleotide 5 (hairpin loop FRET-labelled truncated pre-miR-21) (RNA, miRNA, tC^O (cytosine analogue, donor) at 24; tCnitro (cytosine analogue, acceptor) at 31) CCGACUGAUGUUGACUGUUGAAUCUCAUGGCAACACCAGUCGG; test: interbase-FRET, change in FRET efficiency; conditions: 80 mM NaCl, 100 mM total Na+; 20 mM sodium cacodylate, pH 7.2; 1 µM RNA, 15 µM compound; single concentration, not a constant
[4] = system: oligoribonucleotide 7 (stem FRET-labelled truncated pre-miR-21) (RNA, miRNA, tC^O (cytosine analogue, donor) at 15; tCnitro (cytosine analogue, acceptor) at 37) CCGACUGAUGUUGACUGUUGAAUCUCAUGGCAACACCAGUCGG; test: interbase-FRET, change in FRET efficiency; conditions: 80 mM NaCl, 100 mM total Na+; 20 mM sodium cacodylate, pH 7.2; 1 µM RNA, 15 µM compound; single concentration, not a constant
[5] = system: oligoribonucleotide 2 (truncated pre-miR-21, 43 nt) (RNA, miRNA) CCGACUGAUGUUGACUGUUGAAUCUCAUGGCAACACCAGUCGG; test: ITC; conditions: 80 mM NaCl, 100 mM total Na+; 20 mM sodium cacodylate, pH 7.2, 25 °C; 10 µM RNA; 1:1 fit

Kd [1]: 28 ± 35 µM | Kd [2]: 27 ± 34 µM
SMILES: CCN[C@@H]1C[C@H](N)[C@@H](O[C@H]2OC(CN)=CC[C@H]2N)[C@H](O)[C@H]1O[C@H]1OC[C@](C)(O)[C@H](NC)[C@H]1O

Kd [1]: 4 ± 2 µM | Kd [2]: 4 ± 2 µM | ΔFRET15µM [3]: 0.023 | ΔFRET15µM [4]: 0.041
SMILES: CN[C@@H]1[C@@H](O)[C@@H](O[C@@H]2[C@@H](O)[C@H](O[C@H]3OC(CN)=CC[C@H]3N)[C@@H](N)C[C@H]2N)OC[C@]1(C)O

Kd [1]: 22 ± 12 µM | Kd [2]: 23 ± 12 µM
SMILES: CN[C@@H]1[C@@H](O[C@H]2O[C@H](CO)[C@@H](N)[C@H](O)[C@H]2O)O[C@H]2C[C@@H](N)[C@@H](O[C@H]3[C@H](O)[C@@H](O)[C@H](N)C[C@@H]3N)O[C@@H]2[C@@H]1O

Kd [5]: 5.2 ± 0.8 µM | Kd [1]: 3.9 ± 2.8 µM | Kd [2]: 2.7 ± 1.7 µM | ΔFRET15µM [3]: 0.042 | ΔFRET15µM [4]: 0.045
SMILES: NC[C@@H]1O[C@H](O[C@H]2[C@@H](O)[C@H](O[C@@H]3[C@@H](O)[C@H](N)C[C@H](N)[C@H]3O[C@H]3O[C@H](CN)[C@@H](O)[C@H](O)[C@H]3N)O[C@@H]2CO)[C@H](N)[C@@H](O)[C@@H]1O

Kd [1]: 90 ± 73 µM | Kd [2]: 78 ± 67 µM
SMILES: NC[C@H]1O[C@H](O[C@H]2[C@H](O[C@@H]3O[C@H](CO)[C@@H](O)[C@H]3O)[C@@H](O)[C@H](N)C[C@@H]2N)[C@H](N)[C@@H](O)[C@@H]1O

Second part, the compound before the results:

SMILES: CN[C@@H]1[C@@H](O)[C@@H](O[C@@H]2[C@@H](O)[C@H](O[C@H]3O[C@H]([C@@H](C)O)[C@@H](O)[C@H](O)[C@H]3N)[C@@H](N)C[C@H]2N)OC[C@]1(C)O
Kd [1]: 101 ± 44 µM | Kd [2]: 94 ± 57 µM

SMILES: CN[C@@H]1[C@H](O[C@H]2[C@H](O[C@H]3[C@H](O)[C@@H](O)[C@H](N=C(N)N)[C@@H](O)[C@@H]3N=C(N)N)O[C@@H](C)[C@]2(O)C=O)O[C@@H](CO)[C@H](O)[C@H]1O
Kd [1]: 134 ± 76 µM | Kd [2]: 115 ± 80 µM | ΔFRET15µM [3]: 0.004 | ΔFRET15µM [4]: 0.008

SMILES: NCC[C@H](O)C(=O)N[C@@H]1C[C@H](N)[C@@H](O[C@H]2O[C@H](CN)[C@@H](O)[C@H](O)[C@H]2O)[C@H](O)[C@H]1O[C@H]1O[C@H](CO)[C@@H](O)[C@H](N)[C@H]1O
Kd [1]: 15 ± 4 µM | Kd [2]: 14 ± 3 µM

SMILES: NC[C@H]1O[C@H](O[C@H]2[C@H](O)[C@@H](O[C@H]3O[C@H](CO)[C@@H](O)[C@H](N)[C@H]3O)[C@H](N)C[C@@H]2N)[C@H](N)C[C@@H]1O
Kd [1]: 8 ± 4 µM | Kd [2]: 8 ± 5 µM | ΔFRET15µM [3]: 0.024 | ΔFRET15µM [4]: 0.049

SMILES: NC[C@H]1O[C@H](O[C@H]2[C@H](O)[C@@H](O[C@H]3O[C@H](CO)[C@@H](O)[C@H](N)[C@H]3O)[C@H](N)C[C@@H]2N)[C@H](O)[C@@H](O)[C@@H]1O
Kd [1]: 44 ± 18 µM | Kd [2]: 45 ± 23 µM
